Measurements taken from PMC12434670 (Journal of Medicinal Chemistry, 2025).
Read-outs that look alike come from different tables or passages of the source.

Key:
[1] = system: A/H1N1 virus; assay: microbe, parasite or virus in culture; type: cell-based, influenza A virus
[2] = system: A/H1N1 virus A/Virginia/ATCC3/2009 (Virg09); assay: microbe, parasite or virus in culture; type: cell-based, influenza A virus; conditions: for EC50: Influenza A virus, MDCK
[3] = system: A/H1N1 virus A/PR/8/34 (PR8); assay: microbe, parasite or virus in culture; type: cell-based; conditions: Influenza A virus, MDCK
[4] = in vitro; conditions: dog
[5] = system: MDCK cells; conditions: dog
[6] = read-out: Antiviral EC50 for Virg09 virus
[7] = read-out: Antiviral EC50 for PR8 virus
[8] = read-out: Antiviral EC50 against A/H1N1 virus, Virg09 strain, MTS
[9] = read-out: Antiviral EC50 against A/H1N1 virus, Virg09 strain, Microscopy
[10] = read-out: Antiviral EC50 against A/H1N1 virus, PR8 strain, MTS
[11] = read-out: Antiviral EC50 against A/H1N1 virus, PR8 strain, Microscopy

Cc1cc(CNC(=O)c2cc(Br)cc(C(F)(F)F)c2)c(C)s1 [Compound 24, 3-Bromo-N-[(2,5-dimethylthiophen-3-yl)methyl]-5-(trifluoromethyl)benzamide]
Antiviral activity against A/H1N1 virus (in words) [1]: abolished the antiviral activity
EC50 [2, 6]: > 100 µM
EC50 [3, 7]: > 100 µM

Cc1cc(CNC(=O)c2cc(F)cc(F)c2)c(C)s1 [Compound 26, 3,5-Difluoro-N-[(2,5-dimethylthiophen-3-yl)methyl]benzamide]
EC50 [2, 6]: > 100 µM
EC50 [3, 7]: > 100 µM

Cc1cc(CNC(=O)c2cc(Cl)cc(Cl)c2)c(C)s1 [Compound 27, 3,5-Dichloro-N-[(2,5-dimethylthiophen-3-yl)methyl]benzamide]
EC50 [2, 6]: > 100 µM
EC50 [3, 7]: > 100 µM

Cc1cc(CNC(=O)c2cc(Br)cc(Br)c2)c(C)s1 [Compound 28, 3,5-Dibromo-N-[(2,5-dimethylthiophen-3-yl)methyl]benzamide]
EC50 [2, 6]: > 100 µM
EC50 [3, 7]: > 100 µM

Cc1cc(CNC(=O)c2cccc(F)c2)c(C)s1 [Compound 30, N-[(2,5-Dimethylthiophen-3-yl)methyl]-3-fluorobenzamide]
EC50 [2, 6]: > 100 µM
EC50 [3, 7]: > 100 µM

Cc1cc(CNC(=O)c2cccc(C(F)(F)F)c2)c(C)s1 [Compound 31, N-[(2,5-Dimethylthiophen-3-yl)methyl]-3-(trifluoromethyl)benzamide]
EC50 [2, 6]: > 100 µM
EC50 [3, 7]: > 100 µM

Cc1cc(CNC(=O)c2cccc(Cl)c2)c(C)s1 [Compound 32, 3-Chloro-N-[(2,5-dimethylthiophen-3-yl)methyl]benzamide]
EC50 [2, 6]: > 100 µM
EC50 [3, 7]: > 100 µM

Cc1cc(CNC(=O)c2cccc(Br)c2)c(C)s1 [Compound 33, 3-Bromo-N-[(2,5-dimethylthiophen-3-yl)methyl]benzamide]
EC50 [2, 6]: > 100 µM
EC50 [3, 7]: > 100 µM

Cc1cc(CNC(=O)c2cccc([N+](=O)[O-])c2)c(C)s1 [Compound 34, N-[(2,5-Dimethylthiophen-3-yl)methyl]-3-nitrobenzamide]
EC50 [2, 6]: > 100 µM
EC50 [3, 7]: > 100 µM

Cc1cc(CNC(=O)c2cc(F)c(F)c(C(F)(F)F)c2)c(C)s1 [Compound 35, N-((2,5-Dimethylthiophen-3-yl)methyl)-3,4-difluoro-5-(trifluoromethyl)benzamide]
CC50 [4]: > 100 µM
EC50 [2, 8]: 0.2 ± 0.05 µM
EC50 [2, 9]: 0.89 ± 0.13 µM
EC50 [3, 10]: 0.22 ± 0.03 µM
EC50 [3, 11]: 0.86 ± 0.41 µM
Cytotoxicity MCC, Microscopy [5]: >100 µM

Cc1cc(CNC(=O)c2ccccc2)c(C)s1 [Compound 40, N-((2,5-Dimethylthiophen-3-yl)methyl)benzamide]
EC50 [2, 6]: > 100 µM
EC50 [3, 7]: > 100 µM

Cc1cc(CNC(=O)c2ccc(Cl)cc2)c(C)s1 [Compound 41, 4-Chloro-N-((2,5-dimethylthiophen-3-yl)methyl)benzamide]
EC50 [2, 6]: > 100 µM
EC50 [3, 7]: > 100 µM

Cc1ccc(C(=O)NCc2cc(C)sc2C)cc1 [Compound 42, N-((2,5-Dimethylthiophen-3-yl)methyl)-4-methylbenzamide]
EC50 [2, 6]: > 100 µM
EC50 [3, 7]: > 100 µM

COc1ccc(C(=O)NCc2cc(C)sc2C)cc1 [Compound 43, N-((2,5-Dimethylthiophen-3-yl)methyl)-4-methoxybenzamide]
EC50 [2, 6]: > 100 µM
EC50 [3, 7]: > 100 µM

Cc1cc(CNC(=O)c2ccc(Cl)c(Cl)c2)c(C)s1 [Compound 44, 3,4-Dichloro-N-((2,5-dimethylthiophen-3-yl)methyl)benzamide]
EC50 [2, 6]: > 100 µM
EC50 [3, 7]: > 100 µM

Cc1cc(CNC(=O)c2cc(F)cc(C(F)(F)F)c2)cs1 [Compound 45, 3-Fluoro-N-((5-methylthiophen-3-yl)methyl)-5-(trifluoromethyl)benzamide]
CC50 [4]: 67 ± 1 µM
EC50 [2, 8]: 0.39 ± 0.18 µM
EC50 [2, 9]: 1.6 ± 0.5 µM
EC50 [3, 10]: 0.68 ± 0.51 µM
EC50 [3, 11]: 0.26 ± 0.02 µM
Cytotoxicity MCC, Microscopy [5]: 78 ± 22 µM

Cc1sccc1CNC(=O)c1cc(F)cc(C(F)(F)F)c1 [Compound 46, 3-Fluoro-N-((2-methylthiophen-3-yl)methyl)-5-(trifluoromethyl)benzamide]
CC50 [4]: > 100 µM
ΔΔG (exp), change VF-57a → labelled compound [2]: 1.8 kcal/mol
ΔΔG (exp), change labelled compound → VF-57a [2]: –1.8 kcal/mol
EC50 [2, 8]: 6.8 ± 6.5 µM
EC50 [2, 9]: 8.3 ± 5.1 µM
EC50 [3, 10]: 0.23 ± 0.08 µM
EC50 [3, 11]: 0.17 ± 0.04 µM
Cytotoxicity MCC, Microscopy [5]: 67 ± 33 µM

O=C(NCc1ccsc1)c1cc(F)cc(C(F)(F)F)c1 [Compound 47, 3-Fluoro-N-(Thiophen-3-ylmethyl)-5-(trifluoromethyl)benzamide]
CC50 [4]: > 100 µM
ΔΔG (exp), change VF-57a → labelled compound [2]: 1.9 kcal/mol
ΔΔG (exp), change labelled compound → VF-57a [2]: –1.9 kcal/mol
EC50 [2, 8]: 7.2 ± 4.1 µM
EC50 [2, 9]: 20 ± 8 µM
EC50 [3, 10]: 0.42 ± 0.1 µM
EC50 [3, 11]: 0.44 ± 0.16 µM
Cytotoxicity MCC, Microscopy [5]: >100 µM

Cc1cc(CNC(=O)c2cc(Cl)cc(C(F)(F)F)c2)cs1 [Compound 48, 3-Chloro-N-((5-methylthiophen-3-yl)methyl)-5-(trifluoromethyl)benzamide]
CC50 [4]: > 100 µM
EC50 [2, 8]: 0.15 ± 0.12 µM
EC50 [2, 9]: 1.9 ± 1.1 µM
EC50 [3, 10]: 0.34 ± 0.18 µM
EC50 [3, 11]: 0.46 ± 0.14 µM
Cytotoxicity MCC, Microscopy [5]: >100 µM

Cc1sccc1CNC(=O)c1cc(Cl)cc(C(F)(F)F)c1 [Compound 49, 3-Chloro-N-((2-methylthiophen-3-yl)methyl)-5-(trifluoromethyl)benzamide]
CC50 [4]: > 100 µM
EC50 [2, 8]: 0.37 ± 0.16 µM
EC50 [2, 9]: 0.48 ± 0.07 µM
EC50 [3, 10]: 0.14 ± 0.04 µM
EC50 [3, 11]: 0.14 ± 0.05 µM
Cytotoxicity MCC, Microscopy [5]: 78 ± 22 µM

O=C(NCc1ccsc1)c1cc(Cl)cc(C(F)(F)F)c1 [Compound 50, 3-Chloro-N-(Thiophen-3-ylmethyl)-5-(trifluoromethyl)benzamide]
CC50 [4]: 70 ± 2 µM
ΔΔG (exp), change VF-57a → labelled compound [2]: 0.8 kcal/mol
ΔΔG (exp), change labelled compound → VF-57a [2]: –0.8 kcal/mol
EC50 [2, 8]: 1.1 ± 0.5 µM
EC50 [2, 9]: 2.1 µM
EC50 [3, 10]: 2 ± 1 µM
EC50 [3, 11]: 1 ± 0.6 µM
Cytotoxicity MCC, Microscopy [5]: 100 ± 0 µM

Cc1cc(CNC(=O)c2cc(F)c(F)c(C(F)(F)F)c2)cs1 [Compound 51, 3,4-Difluoro-N-((5-methylthiophen-3-yl)methyl)-5-(trifluoromethyl)benzamide]
CC50 [4]: 24 ± 2 µM
EC50 [2, 8]: 5.3 ± 0.8 µM
EC50 [2, 9]: > 100 µM
EC50 [3, 10]: 2.9 ± 1.1 µM
EC50 [3, 11]: 3.5 ± 1.2 µM
Cytotoxicity MCC, Microscopy [5]: 33 ± 0 µM

Cc1cc(CNC(=O)c2cc(Cl)c(F)c(C(F)(F)F)c2)cs1 [Compound 52, 3-Chloro-4-fluoro-N-((5-methylthiophen-3-yl)methyl)-5-(trifluoromethyl)benzamide]
CC50 [4]: > 100 µM
EC50 [2, 8]: > 100 µM
EC50 [2, 9]: > 100 µM
EC50 [3, 10]: 8.5 ± 5.6 µM
EC50 [3, 11]: 13 ± 8 µM
Cytotoxicity MCC, Microscopy [5]: >100 µM

Cc1cc(CNC(=O)c2cc(Cl)cc(C(F)(F)F)c2Cl)cs1 [Compound 53, 2,5-Dichloro-N-((5-methylthiophen-3-yl)methyl)-3-(trifluoromethyl)benzamide]
CC50 [4]: > 100 µM
EC50 [2, 8]: 31 ± 3 µM
EC50 [2, 9]: > 100 µM
EC50 [3, 10]: 17 ± 8 µM
EC50 [3, 11]: > 100 µM
Cytotoxicity MCC, Microscopy [5]: >100 µM

Cc1cc(CNC(=O)c2cc(F)cc(C(F)(F)F)c2)c(C)o1 [Compound 54, N-((2,5-Dimethylfuran-3-yl)methyl)-3-fluoro-5-(trifluoromethyl)benzamide]
CC50 [4]: 79 ± 5 µM
EC50 [2, 8]: 0.54 ± 0.06 µM
EC50 [2, 9]: 3.6 ± 2.8 µM
EC50 [3, 10]: 0.47 ± 0.19 µM
EC50 [3, 11]: 0.54 ± 0.17 µM
Cytotoxicity MCC, Microscopy [5]: 100 ± 0 µM

Cc1cc(CNC(=O)c2cc(Cl)cc(C(F)(F)F)c2)c(C)o1 [Compound 55, 3-Chloro-N-((2,5-dimethylfuran-3-yl)methyl)-5-(trifluoromethyl)benzamide]
CC50 [4]: 29 µM
EC50 [2, 8]: 1.1 ± 0.3 µM
EC50 [2, 9]: > 100 µM
EC50 [3, 10]: 0.24 ± 0.08 µM
EC50 [3, 11]: 0.54 ± 0.37 µM
Cytotoxicity MCC, Microscopy [5]: 33 ± 0 µM

O=C(NCc1ccoc1)c1cc(F)cc(C(F)(F)F)c1 [Compound 56, 3-Fluoro-N-(Furan-3-ylmethyl)-5-(trifluoromethyl)benzamide]
EC50 [2, 6]: > 100 µM
EC50 [3, 7]: > 100 µM

O=C(NCc1cncs1)c1cc(F)cc(C(F)(F)F)c1 [Compound 57, 3-Fluoro-N-(Thiazol-5-ylmethyl)-5-(trifluoromethyl)benzamide]
EC50 [2, 6]: > 100 µM
EC50 [3, 7]: > 100 µM

O=C(NCc1ccon1)c1cc(F)cc(C(F)(F)F)c1 [Compound 58, 3-Fluoro-N-(Isoxazol-3-ylmethyl)-5-(trifluoromethyl)benzamide]
EC50 [2, 6]: > 100 µM
EC50 [3, 7]: > 100 µM

O=C(NCc1ccncc1)c1cc(F)cc(C(F)(F)F)c1 [Compound 59, 3-Fluoro-N-(Pyridin-4-ylmethyl)-5-(trifluoromethyl)benzamide]
EC50 [2, 6]: > 100 µM
EC50 [3, 7]: > 100 µM

O=C(NCc1cc[nH]n1)c1cc(F)cc(C(F)(F)F)c1 [Compound 60, N-((1H-Pyrazol-3-Yl)methyl)-3-fluoro-5-(trifluoromethyl)benzamide]
EC50 [2, 6]: > 100 µM
EC50 [3, 7]: > 100 µM

O=C(NCc1cocn1)c1cc(F)cc(C(F)(F)F)c1 [Compound 61, 3-Fluoro-N-(Oxazol-4-ylmethyl)-5-(trifluoromethyl)benzamide]
EC50 [2, 6]: > 100 µM
EC50 [3, 7]: > 100 µM

O=C(NCc1cscn1)c1cc(F)cc(C(F)(F)F)c1 [Compound 62, 3-Fluoro-N-(Thiazol-4-ylmethyl)-5-(trifluoromethyl)benzamide]
EC50 [2, 6]: > 100 µM
EC50 [3, 7]: > 100 µM

NC(=O)c1ncn([C@@H]2O[C@H](CO)[C@@H](O)[C@H]2O)n1 [Ribavirin, reference compound]
CC50 [4]: > 250 µM
EC50 [2, 8]: 20 ± 2 µM
EC50 [2, 9]: 25 µM
EC50 [3, 10]: 38 ± 3 µM
EC50 [3, 11]: 27 ± 1 µM
Cytotoxicity MCC, Microscopy [5]: 80 ± 20 µM
